{"source": "patent US20260262643A1", "about": "“HERBICIDAL BENZOXAZINES” (FMC CORPORATION, priority 2022, published 2026)", "key": {"blackgrass [1]": {"system": "blackgrass", "assay": "Test C postemergence", "assay_type": "in vivo, Alopecurus myosuroides", "settings": "10 days, 0 to 100 scale (0 no effect, 100 complete control)", "in_short": "(§1)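 Pre: seeds in loam/sand, directed soil spray. Post: 1–2 leaf plants, 2–10 cm. Cmpd in non-phytotoxic solvent + surfactant. Greenhouse 10 d; visual rating vs untreated, 0 = none, 100 = complete control.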"}, "ragweed [2]": {"system": "ragweed", "assay": "Test C postemergence", "assay_type": "in vivo, Ambrosia artemisiifolia", "settings": "10 days, 0 to 100 scale (0 no effect, 100 complete control)", "in_short": "as §1"}, "blackgrass [3]": {"system": "blackgrass", "assay": "Test C preemergence", "assay_type": "in vivo, Alopecurus myosuroides", "settings": "preemergence, 0 to 100 scale (0 no effect, 100 complete control)", "in_short": "as §1"}, "soybean [4]": {"system": "soybean", "assay": "Test C postemergence", "assay_type": "in vivo, Glycine max", "settings": "10 days, 0 to 100 scale (0 no effect, 100 complete control)", "in_short": "as §1"}, "pigweed, palmer [5]": {"system": "pigweed, palmer", "assay": "Test C postemergence", "assay_type": "in vivo, Amaranthus palmeri", "settings": "10 days, 0 to 100 scale (0 no effect, 100 complete control)", "in_short": "as §1"}, "corn [6]": {"system": "corn", "assay": "Test C postemergence", "assay_type": "in vivo, Zea mays", "settings": "10 days, 0 to 100 scale (0 no effect, 100 complete control)", "in_short": "as §1"}, "rice": {"system": "rice", "assay": "Test D flooded paddy test", "assay_type": "in vivo, Oryza sativa", "settings": "250 g ai/ha, applied to paddy water, visual rating after 13 to 14 days, scale 0 to 100 (0 no effect, 100 complete control)", "in_short": "(§2)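 2-leaf plants; flood 3 cm above soil; compound dosed into paddy water; greenhouse 13–14 d; visual rating vs controls, 0–100 (100 = complete control); dash = not tested.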"}, "wheat [7]": {"system": "wheat", "assay": "Test C preemergence", "assay_type": "in vivo, Triticum aestivum", "settings": "preemergence, 0 to 100 scale (0 no effect, 100 complete control)", "in_short": "as §1"}, "ryegrass, Italian [8]": {"system": "ryegrass, Italian", "assay": "Test C preemergence", "assay_type": "in vivo, Lolium multiflorum", "settings": "preemergence, 0 to 100 scale (0 no effect, 100 complete control)", "in_short": "as §1"}, "kochia [9]": {"system": "kochia", "assay": "Test C preemergence", "assay_type": "in vivo, Bassia scoparia", "settings": "preemergence, 0 to 100 scale (0 no effect, 100 complete control)", "in_short": "as §1"}, "galium": {"system": "galium", "assay": "Test C postemergence", "assay_type": "in vivo, Galium aparine", "settings": "10 days, 0 to 100 scale (0 no effect, 100 complete control)", "in_short": "as §1"}, "corn [10]": {"system": "corn", "assay": "Test C preemergence", "assay_type": "in vivo, Zea mays", "settings": "preemergence, 0 to 100 scale (0 no effect, 100 complete control)", "in_short": "as §1"}, "barnyardgrass [11]": {"system": "barnyardgrass", "assay": "Test D flooded paddy test", "assay_type": "in vivo, Echinochloa crus-galli", "settings": "250 g ai/ha, applied to paddy water, visual rating after 13 to 14 days, scale 0 to 100 (0 no effect, 100 complete control)", "in_short": "as §2"}, "pigweed, palmer [12]": {"system": "pigweed, palmer", "assay": "Test C preemergence", "assay_type": "in vivo, Amaranthus palmeri", "settings": "preemergence, 0 to 100 scale (0 no effect, 100 complete control)", "in_short": "as §1"}, "kochia [13]": {"system": "kochia", "assay": "Test C postemergence", "assay_type": "in vivo, Bassia scoparia", "settings": "10 days, 0 to 100 scale (0 no effect, 100 complete control)", "in_short": "as §1"}, "horseweed": {"system": "horseweed", "assay": "Test C postemergence", "assay_type": "in vivo, Erigeron canadensis", "settings": "10 days, 0 to 100 scale (0 no effect, 100 complete control)", "in_short": "as §1"}, "oat, wild [14]": {"system": "oat, wild", "assay": "Test C preemergence", "assay_type": "in vivo, Avena fatua", "settings": "preemergence, 0 to 100 scale (0 no effect, 100 complete control)", "in_short": "as §1"}, "soybean [15]": {"system": "soybean", "assay": "Test C preemergence", "assay_type": "in vivo, Glycine max", "settings": "preemergence, 0 to 100 scale (0 no effect, 100 complete control)", "in_short": "as §1"}, "barnyardgrass [16]": {"system": "barnyardgrass", "assay": "Test C postemergence", "assay_type": "in vivo, Echinochloa crusgalli", "settings": "10 days, 0 to 100 scale (0 no effect, 100 complete control)", "in_short": "as §1"}, "sedge, umbrella": {"system": "sedge, umbrella", "assay": "Test D flooded paddy test", "assay_type": "in vivo, Cyperus difformis", "settings": "250 g ai/ha, applied to paddy water, visual rating after 13 to 14 days, scale 0 to 100 (0 no effect, 100 complete control)", "in_short": "as §2"}, "ragweed [17]": {"system": "ragweed", "assay": "Test C preemergence", "assay_type": "in vivo, Ambrosia artemisiifolia", "settings": "preemergence, 0 to 100 scale (0 no effect, 100 complete control)", "in_short": "as §1"}, "wheat [18]": {"system": "wheat", "assay": "Test C postemergence", "assay_type": "in vivo, Triticum aestivum", "settings": "10 days, 0 to 100 scale (0 no effect, 100 complete control)", "in_short": "as §1"}, "ducksalad": {"system": "ducksalad", "assay": "Test D flooded paddy test", "assay_type": "in vivo, Heteranthera limosa", "settings": "250 g ai/ha, applied to paddy water, visual rating after 13 to 14 days, scale 0 to 100 (0 no effect, 100 complete control)", "in_short": "as §2"}, "oat, wild [19]": {"system": "oat, wild", "assay": "Test C postemergence", "assay_type": "in vivo, Avena fatua", "settings": "10 days, 0 to 100 scale (0 no effect, 100 complete control)", "in_short": "as §1"}, "barnyardgrass [20]": {"system": "barnyardgrass", "assay": "Test C preemergence", "assay_type": "in vivo, Echinochloa crusgalli", "settings": "preemergence, 0 to 100 scale (0 no effect, 100 complete control)", "in_short": "as §1"}, "green foxtail [21]": {"system": "green foxtail", "assay": "Test C postemergence", "assay_type": "in vivo, Setaria viridis", "settings": "10 days, 0 to 100 scale (0 no effect, 100 complete control)", "in_short": "as §1"}, "ryegrass, Italian [22]": {"system": "ryegrass, Italian", "assay": "Test C postemergence", "assay_type": "in vivo, Lolium multiflorum", "settings": "10 days, 0 to 100 scale (0 no effect, 100 complete control)", "in_short": "as §1"}, "green foxtail [23]": {"system": "green foxtail", "assay": "Test C preemergence", "assay_type": "in vivo, Setaria viridis", "settings": "preemergence, 0 to 100 scale (0 no effect, 100 complete control)", "in_short": "as §1"}}}
{"compound": "COc1ncn(-c2cccc(C(=O)N3C[C@H](C)Oc4c(C)cccc43)c2)n1", "note": "[Compound 307]", "values": [{"measurement": "Plant response rating, Blackgrass", "setting": "blackgrass [1]; 500 g ai/ha, postemergence", "result": 90}, {"measurement": "Plant response rating, Blackgrass", "setting": "blackgrass [1]; Postemergence, 125 g ai/ha", "result": 70}, {"measurement": "Plant response rating, Ragweed", "setting": "ragweed [2]; 500 g ai/ha, postemergence", "result": 50}, {"measurement": "Plant response rating, Ragweed", "setting": "ragweed [2]; Postemergence, 125 g ai/ha", "result": 0}, {"measurement": "Blackgrass plant response rating", "setting": "blackgrass [3]; 500 g ai/ha", "result": 80}, {"measurement": "Blackgrass plant response rating", "setting": "blackgrass [3]; Test C, 125 g ai/ha", "result": 40}, {"measurement": "Plant response rating, Soybean", "setting": "soybean [4]; 500 g ai/ha, postemergence", "result": 100}, {"measurement": "Plant response rating, Soybean", "setting": "soybean [4]; Postemergence, 125 g ai/ha", "result": 100}, {"measurement": "Plant response rating, Pigweed, Palmer", "setting": "pigweed, palmer [5]; 500 g ai/ha, postemergence", "result": 50}, {"measurement": "Plant response rating, Pigweed, Palmer", "setting": "pigweed, palmer [5]; Postemergence, 125 g ai/ha", "result": 20}, {"measurement": "Plant response rating, Corn", "setting": "corn [6]; 500 g ai/ha, postemergence", "result": 50}, {"measurement": "Plant response rating, Corn", "setting": "corn [6]; Postemergence, 125 g ai/ha", "result": 10}, {"measurement": "Plant response rating, Rice (Flood)", "setting": "rice", "result": 0}, {"measurement": "Wheat plant response rating", "setting": "wheat [7]; 500 g ai/ha", "result": 90}, {"measurement": "Wheat plant response rating", "setting": "wheat [7]; Test C, 125 g ai/ha", "result": 10}, {"measurement": "Ryegrass, Italian plant response rating", "setting": "ryegrass, Italian [8]; 500 g ai/ha", "result": 80}, {"measurement": "Ryegrass, Italian plant response rating", "setting": "ryegrass, Italian [8]; Test C, 125 g ai/ha", "result": 80}, {"measurement": "Kochia plant response rating", "setting": "kochia [9]; 500 g ai/ha", "result": 80}, {"measurement": "Kochia plant response rating", "setting": "kochia [9]; Test C, 125 g ai/ha", "result": 40}, {"measurement": "Plant response rating, Galium", "setting": "galium; 500 g ai/ha, postemergence", "result": 90}, {"measurement": "Plant response rating, Galium", "setting": "galium; Postemergence, 125 g ai/ha", "result": 80}, {"measurement": "Corn plant response rating", "setting": "corn [10]; 500 g ai/ha", "result": 10}, {"measurement": "Corn plant response rating", "setting": "corn [10]; Test C, 125 g ai/ha", "result": 0}, {"measurement": "Plant response rating, Barnyardgrass (Flood)", "setting": "barnyardgrass [11]", "result": 0}, {"measurement": "Pigweed, Palmer plant response rating", "setting": "pigweed, palmer [12]; 500 g ai/ha", "result": 100}, {"measurement": "Pigweed, Palmer plant response rating", "setting": "pigweed, palmer [12]; Test C, 125 g ai/ha", "result": 60}, {"measurement": "Plant response rating, Kochia", "setting": "kochia [13]; 500 g ai/ha, postemergence", "result": 70}, {"measurement": "Plant response rating, Kochia", "setting": "kochia [13]; Postemergence, 125 g ai/ha", "result": 40}, {"measurement": "Plant response rating, Horseweed", "setting": "horseweed; 500 g ai/ha, postemergence", "result": 30}, {"measurement": "Plant response rating, Horseweed", "setting": "horseweed; Postemergence, 125 g ai/ha", "result": 20}, {"measurement": "Oat, Wild plant response rating", "setting": "oat, wild [14]; 500 g ai/ha", "result": 90}, {"measurement": "Oat, Wild plant response rating", "setting": "oat, wild [14]; Test C, 125 g ai/ha", "result": 50}, {"measurement": "Soybean plant response rating", "setting": "soybean [15]; 500 g ai/ha", "result": 100}, {"measurement": "Soybean plant response rating", "setting": "soybean [15]; Test C, 125 g ai/ha", "result": 20}, {"measurement": "Plant response rating, Barnyardgrass", "setting": "barnyardgrass [16]; 500 g ai/ha, postemergence", "result": 80}, {"measurement": "Plant response rating, Barnyardgrass", "setting": "barnyardgrass [16]; Postemergence, 125 g ai/ha", "result": 50}, {"measurement": "Plant response rating, Sedge, Umbrella (Flood)", "setting": "sedge, umbrella", "result": 0}, {"measurement": "Ragweed plant response rating", "setting": "ragweed [17]; 500 g ai/ha", "result": 50}, {"measurement": "Ragweed plant response rating", "setting": "ragweed [17]; Test C, 125 g ai/ha", "result": 0}, {"measurement": "Plant response rating, Wheat", "setting": "wheat [18]; 500 g ai/ha, postemergence", "result": 80}, {"measurement": "Plant response rating, Wheat", "setting": "wheat [18]; Postemergence, 125 g ai/ha", "result": 10}, {"measurement": "Plant response rating, Ducksalad (Flood)", "setting": "ducksalad", "result": 0}, {"measurement": "Plant response rating, Oat, Wild", "setting": "oat, wild [19]; 500 g ai/ha, postemergence", "result": 80}, {"measurement": "Plant response rating, Oat, Wild", "setting": "oat, wild [19]; Postemergence, 125 g ai/ha", "result": 20}, {"measurement": "Barnyardgrass plant response rating", "setting": "barnyardgrass [20]; 500 g ai/ha", "result": 90}, {"measurement": "Barnyardgrass plant response rating", "setting": "barnyardgrass [20]; Test C, 125 g ai/ha", "result": 40}, {"measurement": "Plant response rating, Foxtail, Green", "setting": "green foxtail [21]; 500 g ai/ha, postemergence", "result": 90}, {"measurement": "Plant response rating, Foxtail, Green", "setting": "green foxtail [21]; Postemergence, 125 g ai/ha", "result": 60}, {"measurement": "Plant response rating, Ryegrass, Italian", "setting": "ryegrass, Italian [22]; 500 g ai/ha, postemergence", "result": 70}, {"measurement": "Plant response rating, Ryegrass, Italian", "setting": "ryegrass, Italian [22]; Postemergence, 125 g ai/ha", "result": 60}, {"measurement": "Foxtail, Green plant response rating", "setting": "green foxtail [23]; 500 g ai/ha", "result": 100}, {"measurement": "Foxtail, Green plant response rating", "setting": "green foxtail [23]; Test C, 125 g ai/ha", "result": 100}]}
